The assay has as its target His-tagged p53-Y220C DNA binding domain (Homo sapiens, UniProt P04637, Y220C). As to the kind of experiment: Biochemical p53-Y220C and DNA binding assay (HTRF). The note with it: inflection point of 10 points dose titration, 4 parameter curve fit; p53-Y220C DBD 100 nM, biotinylated dsDNA 200 nM, 27 to 29° C.; read-out: HTRF IP. The source says:
Biological Example 1. Biochemical p53-Y220C and DNA Binding Assay
The compounds of this invention can bind to p53-Y220C and increase the ability of the mutant p53 to bind to DNA at higher temperatures. His-tagged p53-Y220C DNA binding domain containing amino acid 94-312 is used to measure DNA binding activities in vitro with the sequence described below. (SEQ ID NO: 1: […]. Biotin labeled double strand DNA (dsDNA) containing consensus p53 binding sequence (SEQ ID NO: 2: Forward: 5′-(biotin)-[…]-3′; Reverse: 5′-(biotin)-[…]-3′) is used to measure protein-DNA binding activities. Compounds, His-tagged p53-Y220C DBD proteins (100 nM), and biotinylated dsDNA (200 nM) were mixed in ice-cold assay buffer containing DPBS, 20 mM NaCl, and 0.5% BAS, and incubated at 4° C. overnight in 384-well plate. Plates were transferred to incubator at 27 to 29° C. with constant shaking for 60 minutes. Equal volume of Homogeneous Time-Resolved Fluorescence (HTRF) dyes containing mAb anti-6HIS Tb cryptate gold and d2 labeled streptavidin in the assay buffer was added to each well and incubated at 27 to 29° C. with constant shaking for 60 minutes. The plate was read using Envision multimode plate reader. Reference compound 1 was used as high control and DMSO was used as low control. The percentage activation (A %) of protein-DNA binding by compounds was normalized by setting up high control (reference compound) as […] and low control (DMSO) as 0% (A %=(HTRF ratio of compound-HTRF ratio of low control)/(HTRF ratio of high control-HTRF ratio of low control)*500). 10 points dose titration curves for each compound were analyzed by 4 parameter curve fit and inflection point (IP) was reported. Reference compound 1 is shown below Table 1. Compounds of the invention are active in the HTRF assay. Data in Table 1 collected using Biological Example 1.
Background: Time-resolved FRET reads energy transfer from a long-lived donor to a nearby acceptor.
`CC(C)(O)CO/N=C/c1sc2c(N[C@@H]3CNC[C@@H]3F)cccc2c1CC(F)(F)F` [Example 1-7, (E)-7-(((3R,4S)-4-fluoropyrrolidin-3-yl)amino)-3-(2,2,2-trifluoroethyl)benzo[b]thiophene-2-carbaldehyde O-(2-hydroxy-2-methylpropyl) oxime]: the EC50 is under 0.1 µM.

As to `CN1CC[C@@H](Nc2cccc3c(CC(F)(F)F)c(/C=C/CNC(=O)c4cnn(C)c4)sc23)[C@@H](F)C1` [Example 6-2, N-((E)-3-(7-(((3S,4R)-3-fluoro-1-methylpiperidin-4-yl)amino)-3-(2,2,2-trifluoroethyl)benzo[b]thiophen-2-yl)allyl)-1-methyl-1H-pyrazole-4-carboxamide], the EC50 lay within 0.1 to 1 µM. Then `CN1CC[C@@H](Nc2cccc3c(CC(F)(F)F)c(/C=N\OCc4cccc(=O)n4C)sc23)[C@@H](F)C1` [Example 2-30, (Z)-7-(((3S,4R)-3-fluoro-1-methylpiperidin-4-yl)amino)-3-(2,2,2-trifluoroethyl)benzo[b]thiophene-2-carbaldehyde O-((1-methyl-6-oxo-1,6-dihydropyridin-2-yl)methyl) oxime], with 0.1 to 1 µM. Then `CN1CC[C@@H](Nc2cccc3c(SC(F)(F)F)c(/C=N/OCC(C)(C)O)sc23)[C@@H](F)C1` [Example 2-32, (E)-7-(((3S,4R)-3-fluoro-1-methylpiperidin-4-yl)amino)-3-((trifluoromethyl)thio)benzo[b]thiophene-2-carbaldehyde O-(2-hydroxy-2-methylpropyl) oxime], with 0.1 to 1 µM.

With `CN1CC[C@@H](Nc2cccc3c(CC(F)(F)F)c(/C=C/CNc4cccnc4)sc23)[C@@H](F)C1` [Example 7-1, N-((E)-3-(7-(((3S,4R)-3-fluoro-1-methylpiperidin-4-yl)amino)-3-(2,2,2-trifluoroethyl)benzo[b]thiophen-2-yl)allyl)pyridin-3-amine], the EC50 is 0.1 to 1 µM. With `COCC(CO)O/N=C/c1sc2c(N[C@@H]3CNC[C@@H]3F)cccc2c1CC(F)(F)F` (stereo partly drawn) [Example 1-11, (E)-7-(((3R,4S)-4-fluoropyrrolidin-3-yl)amino)-3-(2,2,2-trifluoroethyl)benzo[b]thiophene-2-carbaldehyde O-(1-hydroxy-3-methoxypropan-2-yl) oxime], the EC50 is over 1 µM. Then `O=C(OCc1ccccc1)N1CCC(O)(CO/N=C/c2sc3c(N[C@@H]4CNC[C@@H]4F)cccc3c2CC(F)(F)F)CC1` [Example 1-25, benzyl 4-(((((E)-(7-(((3R,4S)-4-fluoropyrrolidin-3-yl)amino)-3-(2,2,2-trifluoroethyl)benzo[b]thiophen-2-yl)methylene)amino)oxy)methyl)-4-hydroxypiperidine-1-carboxylate], with over 1 µM; and `CN1CC[C@@H](Nc2cccc3c(CC(F)(F)F)c(/C=N/OCc4nc5ccccc5[nH]4)sc23)[C@@H](F)C1` [Example 2-15, (E)-7-(((3S,4R)-3-fluoro-1-methylpiperidin-4-yl)amino)-3-(2,2,2-trifluoroethyl)benzo[b]thiophene-2-carbaldehyde O-((1H-benzo[d]imidazol-2-yl)methyl) oxime], with 0.1 to 1 µM; and `CC[C@H](CO)O/N=C/c1sc2c(NC3CNCC3F)cccc2c1CC(F)(F)F` (stereo in doubt) [Example 1-4, (E)-7-(((3S,4R)-4-fluoropyrrolidin-3-yl)amino)-3-(2,2,2-trifluoroethyl)benzo[b]thiophene-2-carbaldehyde O-((R)-1-hydroxybutan-2-yl) oxime], with over 1 µM. For `CC[C@@H](O)CO/N=C/c1sc2c(N[C@@H]3CNC[C@@H]3F)cccc2c1CC(F)(F)F` [Example 1-1, (E)-7-(((3R,4S)-4-fluoropyrrolidin-3-yl)amino)-3-(2,2,2-trifluoroethyl)benzo[b]thiophene-2-carbaldehyde O-((R)-2-hydroxybutyl) oxime], the EC50 was 0.1 to 1 µM.

Regarding `OCC1(O/N=C/c2sc3c(N[C@@H]4CNC[C@@H]4F)cccc3c2CC(F)(F)F)CCOCC1` [Example 1-21, (E)-7-(((3R,4S)-4-fluoropyrrolidin-3-yl)amino)-3-(2,2,2-trifluoroethyl)benzo[b]thiophene-2-carbaldehyde O-(4-(hydroxymethyl)tetrahydro-2H-pyran-4-yl) oxime], the EC50 was over 1 µM. As for `OC(CO/N=C/c1sc2c(N[C@@H]3CNC[C@@H]3F)cccc2c1CC(F)(F)F)C(F)(F)F` (stereo partly drawn) [Example 1-5, (E)-7-(((3R,4S)-4-fluoropyrrolidin-3-yl)amino)-3-(2,2,2-trifluoroethyl)benzo[b]thiophene-2-carbaldehyde O-(3,3,3-trifluoro-2-hydroxypropyl) oxime], the EC50 was 0.1 to 1 µM.

Take `CC(O/N=C/c1sc2c(N[C@@H]3CNC[C@@H]3F)cccc2c1CC(F)(F)F)c1cccnc1` (stereo partly drawn) [Example 2-25, (E)-7-(((3R,4S)-4-fluoropyrrolidin-3-yl)amino)-3-(2,2,2-trifluoroethyl)benzo[b]thiophene-2-carbaldehyde O-(1-(pyridin-3-yl)ethyl) oxime]: the EC50 lay within 0.1 to 1 µM. For the compound `O=C1CC(CO/N=C/c2sc3c(N[C@@H]4CNC[C@@H]4F)cccc3c2CC(F)(F)F)CN1` (stereo partly drawn) [Example 3-8, (E)-7-(((3R,4S)-4-fluoropyrrolidin-3-yl)amino)-3-(2,2,2-trifluoroethyl)benzo[b]thiophene-2-carbaldehyde O-((5-oxopyrrolidin-3-yl)methyl) oxime], the EC50 fell in the range of 0.1 to 1 µM. As to `O=C1NCC(CO/N=C/c2sc3c(N[C@@H]4CNC[C@@H]4F)cccc3c2CC(F)(F)F)O1` (stereo partly drawn) [Example 2-23, (E)-7-(((3R,4S)-4-fluoropyrrolidin-3-yl)amino)-3-(2,2,2-trifluoroethyl)benzo[b]thiophene-2-carbaldehyde O-((2-oxooxazolidin-5-yl)methyl) oxime], the EC50 is 0.1 to 1 µM. With `OC(COCc1ccccc1)CO/N=C/c1sc2c(N[C@@H]3CNC[C@@H]3F)cccc2c1CC(F)(F)F` (stereo partly drawn) [Example 1-34, (E)-7-(((3R,4S)-4-fluoropyrrolidin-3-yl)amino)-3-(2,2,2-trifluoroethyl)benzo[b]thiophene-2-carbaldehyde O-(3-(benzyloxy)-2-hydroxypropyl) oxime], the EC50 was over 1 µM. Regarding `CN1CC[C@@H](Nc2cccc3c2cc(/C=N/Oc2ccccc2)n3CC(F)(F)F)[C@@H](F)C1` [Example 2-6, (E)-4-(((3S,4R)-3-fluoro-1-methylpiperidin-4-yl)amino)-1-(2,2,2-trifluoroethyl)-1H-indole-2-carbaldehyde O-phenyl oxime], the EC50 was over 1 µM.

For the compound `CN1CC[C@@H](Nc2cccc3c(CC(F)(F)F)c(/C=C/CNS(C)(=O)=O)sc23)[C@@H](F)C1` [Example 6-3, N-((E)-3-(7-(((3S,4R)-3-fluoro-1-methylpiperidin-4-yl)amino)-3-(2,2,2-trifluoroethyl)benzo[b]thiophen-2-yl)allyl)methanesulfonamide], the EC50 fell in the range of 0.1 to 1 µM. As to `CN1CC[C@@H](Nc2cccc3c(CC(F)(F)F)c(/C=N/OCc4cccc(=O)[nH]4)sc23)[C@@H](F)C1` [Example 2-31, (E)-7-(((3S,4R)-3-fluoro-1-methylpiperidin-4-yl)amino)-3-(2,2,2-trifluoroethyl)benzo[b]thiophene-2-carbaldehyde O-((6-oxo-1,6-dihydropyridin-2-yl)methyl) oxime], the EC50 is under 0.1 µM. Then `CN1CC[C@@H](Nc2cccc3c2cc(/C=N/OCC2CC2)n3CC(F)(F)F)[C@@H](F)C1` [Example 2-1, (E)-4-(((3S,4R)-3-fluoro-1-methylpiperidin-4-yl)amino)-1-(2,2,2-trifluoroethyl)-1H-indole-2-carbaldehyde O-cyclopropylmethyl oxime], with over 1 µM. To `OC(CO/N=C/c1sc2c(N[C@@H]3CCNC[C@@H]3F)cccc2c1CC(F)(F)F)c1ccccc1` (stereo partly drawn) [Example 2-12, (E)-7-(((3S,4R)-3-fluoropiperidin-4-yl)amino)-3-(2,2,2-trifluoroethyl)benzo[b]thiophene-2-carbaldehyde O-(2-hydroxy-2-phenylethyl) oxime] belongs 0.1 to 1 µM; to `CNC(=O)CO/N=C/c1cc2c(N[C@@H]3CCN(C)C[C@@H]3F)cccc2n1CC(F)(F)F` [Example 2-7, 2-((((E)-(4-(((3S,4R)-3-fluoro-1-methylpiperidin-4-yl)amino)-1-(2,2,2-trifluoroethyl)-1H-indol-2-yl)methylene)amino)oxy)-N-methylacetamide], over 1 µM. As to `CN1CC[C@@H](Nc2cccc3c(CC(F)(F)F)c(/C=N/OCC(C)(C)O)sc23)[C@@H](F)C1` [Example 1-39, (E)-7-(((3S,4R)-3-fluoro-1-methylpiperidin-4-yl)amino)-3-(2,2,2-trifluoroethyl)benzo[b]thiophene-2-carbaldehyde O-(2-hydroxy-2-methylpropyl) oxime], the EC50 is under 0.1 µM.

These data come from US20250120961A1, “P53 MODULATORS” (Nested Therapeutics, Inc., priority 2023, published 2025).
